Measured values: US20130085133A1, “ANTI-VIRAL TREATMENT AND ASSAY TO SCREENFOR ANTI-VIRAL AGENT” (Sourthern Research Institute Office of Commercialization …, priority 2010, published 2013)
pEC50: −log10 of the molar value.

Assays:
RSV, Long strain = assay: virus titer Reduction (VTR) assay, progeny virus TCID50 in HEp-2 cells; format: cell-based, respiratory syncytial virus (RSV); details: human respiratory syncytial virus, 48 h; for log reduction at 5 µg/mL: 5 ug/ml compound, read-out: TCID-50 Reduction @ 5 ug/ml; for log reduction at 12 µg/mL: 12 ug/ml compound, read-out: TCID-50 Reduction 12 @ ug/ml; for log reduction at 25 µg/mL: 25 ug/ml compound, read-out: TCID-50 Reduction 25 @ ug/ml; for log reduction at 50 µg/mL: 50 ug/ml compound, read-out: TCID-50 Reduction @ 50 ug/ml; for log reduction at 3 µg/mL: 3 ug/ml compound, read-out: TCID-50 Reduction @ 3 ug/ml; for log reduction at 6 µg/mL: 6 ug/ml compound, read-out: TCID-50 Reduction 6 @ ug/ml
Protocol: Four concentrations of each compound were evaluated (Table 3). Briefly, the four concentrations of test compounds, HEp-2 cells (8×10^3 per well) and RSV, Long strain (MOI=0.9) were plated in 96 well microtiter plates. The plates were incubated for 48 hours. Fifteen (15) μl of 10-fold serial dilution of progeny virus containing medium from respective samples (test compound treated or untreated) was transferred to infect fresh HEp-2 cells (2×10^3 cells per well) in a 384 well format. Plates were incubated for an additional 6 days and luminescence was measured using Cell Titer-Glo reagent (Promega Inc.) to determine cell viability. […] A well showing lesser than 50% cell viability was regarded as positive for virus infection. Four replicates for each virus dilution were analyzed and the number of virus positive wells (out of 4) was plotted versus the dilution. TCID50 was calculated to be the dilution that produced two positive wells out of four using ActivityBase software (IDBS, Inc, Guilford, UK).

[1] = system: respiratory syncytial virus (RSV) strain Long; assay: microbe, parasite or virus in culture; details: human respiratory syncytial virus, HEp-2, 144 h
Protocol: The assay measures RSV virus-induced CPE in HEp-2 cells using cell viability as the end point.
Two vials of RSV (strain Long) containing 1×10^7 pfu/mL was thawed using an Eppendorf thermomixer for 13 min at 15° C., with shaking at 350 rpm. […] The cells were incubated for 18-20 h at 37° C., 5% CO2, 90% relative humidity. The medium was aspirated and the cells washed with 10 mL PBS without Mg^2+ or Ca^2+. Cells were harvested from flasks using 0.25% trypsin-EDTA. The cells were resuspended in a freezing medium of 95% fetal calf serum and 5% DMSO to a final cell density of 2×10^6 cells/mL. One mL aliquots of this virus infected cell suspension were dispensed to cryovials and cells were rate frozen to −80° C. Frozen infected cells were then transferred to −150° C. for long term storage.
(§1) Test compounds were evaluated by measuring their antiviral activity, cell toxicity, and selectivity. Test compounds were serially diluted in a plate to plate matrix or “stacked plate” matrix. All 320 compounds in a source plate were diluted together resulting in a 10 point dose response dilution series. It was visualized as a serial dilution series proceeding vertically through a stack of plates with the high dose plate on top and the low dose plate on the bottom.
Cells were harvested and resuspended to 80,000 cells per ml in Complete DMEM/F12.
Cells were thawed in a room temperature water bath with gentle agitation. The tube was inverted 5-10. Cells were diluted to 80,000 cells per ml by adding the contents of the vial to 24 ml of cold (4° C.) media.
Twenty five ul of uninfected HEp-2 cells were plated in the cell control wells. Frozen infected cells were combined with uninfected HEp-2 cells at a 1:100 ratio. Twenty five ul of the cell mixture was added to the virus control and compound wells. All cell plating was conducted using a Matrix WellMate and cells were maintained at room temperature with stirring during the plating process. The assay plates were incubated for six days at 37° C., 5% CO2 and 90% relative humidity.
(§2) Following the six day incubation period, the assay plates were equilibrated to room temperature for 30 min and an equal volume (30 μL) of Cell Titer-Glo reagent (Promega Inc.) was added to each well using a WellMate (Matrix, Hudson, N.H.) and plates were incubated for an additional 10 min at room temperature. At the end of the incubation, luminescence was measured using a Perkin Elmer Envision™ multi-label reader (PerkinElmer, Wellesley, Mass.) with an integration time of 0.1 s.
(§3) Data was analyzed using ActivityBase software (IDBS, Inc, Guilford, UK). thirty two control wells containing cells only and twenty four wells containing cells and virus were included on each assay plate and used to calculate Z′ value for each plate and to normalize the data on a per plate basis. […] Eight ribavirin positive control wells were included on each plate for quality control purposes, but were not used in Z′ calculations. […] In the toxicity assay, results are described as percent viability and the calculation is the same.
(§4) An EC50 (for CPE inhibition) and IC50 (for cell viability) were calculated for each substance using the 4 parameter Levenburg-Marquardt algorithm with parameter A locked at 0 and parameter B locked at 100. Standard deviation, normalized chi2 and hill slope were used to evaluate the curves. Values were not extrapolated beyond the tested range of concentrations.

[2] = cytotoxicity assay (percent viability of HEp-2 cells, Cell Titer-Glo); details: human, HEp-2 cells
Protocol: as §1, §2, §3, §4

Row | Compound | pEC50 [1] | EC50 [1] | log reduction at 5 µg/mL (RSV, Long strain) | log reduction at 12 µg/mL (RSV, Long strain) | log reduction at 25 µg/mL (RSV, Long strain) | log reduction at 50 µg/mL (RSV, Long strain) | CC50 at 6 days [2] | log reduction at 3 µg/mL (RSV, Long strain) | log reduction at 6 µg/mL (RSV, Long strain)
1 | CC1(C)O[C@@H]2[C@H](O1)[C@@H](CO)O[C@H]2n1ncc(=O)[nH]c1=O [AB00174524] | 5.49 | – | 4.58 | 5.98 | 5.56 | 5.87 | > 50 µM | – | –
2 | CCCSC1=C(C#N)C(c2ccco2)C(C(=O)Nc2ccccc2)=C(C)N1 (centres unmarked) [AB00276073] | – | 5.12 µg/mL | – | 1.39 | 3.57 | – | > 25 µg/mL | 1 | 0.63
3 | CC1=Nc2ccc(C)c3nc(C)cc(c23)N1c1ccc(C)cc1 [AB00280244] | – | 8.62 µg/mL | – | 1.55 | 2.89 | – | > 25 µg/mL | 1.55 | 1.36
4 | O=C(Nc1ccc(Nc2ccccc2)cc1)c1ccccc1Cl [AB00280499] | – | 6.6 µg/mL | – | 3.69 | 2.96 | – | > 25 µg/mL | 2.55 | 2.38
5 | CCOC(=O)Cc1nnc(Nc2ccc(C)cc2)c2ccccc12 [AB00285095] | – | 9.72 µg/mL | – | 1.99 | 2.56 | – | > 25 µg/mL | 1 | 1.32
6 | O=C(CCSc1ccccc1)Nc1ccccc1C(=O)O [AB00289457] | – | 2.97 µg/mL | – | 6.73 | 6.57 | – | > 25 µg/mL | 1 | 4.9
7 | COc1ccc(C(=O)Nc2ccc3c(c2)OCCO3)c(OC)c1 [AB00296320] | – | 8.34 µg/mL | – | 2.9 | 4.66 | – | > 25 µg/mL | 1.55 | 1.38
8 | CCCn1c(COc2ccccc2OC)nc2ccccc21 [AB00296415] | – | 4.88 µg/mL | 2.48 | 2.59 | 5.9 | – | > 25 µg/mL | 1.74 | –
9 | CCCn1cnc2sc(-c3ccccc3)cc2c1=O [AB00298501] | – | 3.14 µg/mL | – | 2.9 | 3.78 | – | > 25 µg/mL | 1.82 | 2.38
10 | Cc1ccc(N(CCCCN2C(=O)c3ccccc3C2=O)C(=O)c2cccc([N+](=O)[O-])c2)cc1 [AB00301184] | – | 2.53 µg/mL | – | 1.9 | 1.88 | – | > 25 µg/mL | 1.53 | 1.67
11 | O=C1c2ccccc2C(=O)N1CCCCN(C(=O)c1cccc([N+](=O)[O-])c1)c1ccc(Cl)cc1 [AB00301782] | – | 2.01 µg/mL | – | 1.42 | 0.87 | – | > 25 µg/mL | 1.55 | 1.64
12 | O=C(Nc1ccccc1)N1CCc2cc([N+](=O)[O-])ccc21 [AB00705281] | – | – | 4.75 | 4.2 | 5.56 | 5.9 | – | – | –
13 | C/C(N)=C(/C#N)C(=O)CSc1nnc2c(Cl)cc(C(F)(F)F)cn12 [AB00724801] | 4.79 | – | – | – | – | – | > 50 µM | – | –
14 | CCOc1ccccc1/C=C(\C#N)c1nc2sc3c(c2c(=O)[nH]1)CCCC3 [AB00726710] | 4.51 | – | – | – | – | – | > 50 µM | – | –
15 | C/C(N)=C(/C#N)C(=O)CSc1nc2sc3c(c2c(=O)n1-c1ccccc1C(F)(F)F)CCCCC3 [AB00728757] | 4.74 | – | – | – | – | – | > 50 µM | – | –
16 | COCCn1c(SCC(=O)NC2CCCc3ccccc32)nnc1-c1cccc(C)c1 (centres unmarked) [AB00728760] | 4.42 | – | – | – | – | – | > 50 µM | – | –
17 | O=C(CCNC(=O)c1ccc(Br)cc1)NC1CCCc2ccccc21 (centres unmarked) [AB00739576] | 4.61 | – | – | – | – | – | > 50 µM | – | –
18 | O=C(c1cccc(OC(F)F)c1)N1CCc2cc([N+](=O)[O-])ccc21 [AB00764110] | 4.38 | – | – | – | – | – | > 50 µM | – | –
19 | O=C(COc1ccc(Cl)c(Cl)c1)Nc1cccc(C(=O)NC2CC2)c1 [AB00784993] | 4.92 | – | – | – | – | – | > 50 µM | – | –
20 | Cc1noc(C)c1S(=O)(=O)N1CCN(Cc2ccccc2C#N)CC1 [AB00785032] | 4.33 | – | – | – | – | – | > 50 µM | – | –
21 | Cc1ccc(-c2csc3ncn(Cc4cc(=O)oc5cc(Br)ccc45)c(=O)c23)cc1 [AB00785889] | 4.63 | – | – | – | – | – | > 50 µM | – | –
22 | Cc1ccc2c(Cn3cnc4scc(-c5ccc(F)cc5)c4c3=O)cc(=O)oc2c1 [AB00796970] | 4.97 | – | – | – | – | – | > 50 µM | – | –
23 | COc1cc(SC)ccc1C(=O)Nc1ccc(C(=O)NC2CC2)cc1 [AB00797753] | 4.52 | – | – | – | – | – | > 50 µM | – | –
24 | CC(=O)Nc1ccc(S(=O)(=O)N(C)CC(=O)Nc2ccccc2Oc2ccccc2)cc1 [AB00798716] | 4.30 | – | – | – | – | – | > 50 µM | – | –
25 | Clc1ccccc1OCc1noc(-c2cccs2)n1 [AB00877365] | 4.41 | – | – | – | – | – | > 50 µM | – | –
26 | O=C(CCc1ccccc1)Nc1sc2c(c1C(=O)O)CCC2 [AB00877405] | 4.56 | – | – | – | – | – | > 50 µM | – | –
27 | CNc1ncnc2c1ncn2[C@@H]1C[C@H](CO)[C@H](O)[C@@H]1O [SRI-4711] | 4.61 | – | – | – | – | – | > 50 µM | – | –

More lines, main results first:

Row | pEC50 [1] | EC50 [1] | Compound | log reduction at 5 µg/mL (RSV, Long strain) | log reduction at 12 µg/mL (RSV, Long strain) | log reduction at 25 µg/mL (RSV, Long strain) | log reduction at 50 µg/mL (RSV, Long strain) | CC50 at 6 days [2] | log reduction at 3 µg/mL (RSV, Long strain) | log reduction at 6 µg/mL (RSV, Long strain)
28 | – | 8.56 µg/mL | Cc1cccc(N2C(=O)CC(Cc3ccc(Cl)cc3)C2=O)c1Cl (centres unmarked) [AB00292352] | 2.31 | 3.82 | 5.9 | – | > 25 µg/mL | 1.22 | –
29 | – | 9.01 µg/mL | CC(=O)N(CCCCN1C(=O)c2ccccc2C1=O)c1ccc(C)cc1 [AB00300194] | 1.83 | 2.04 | 2.56 | – | > 25 µg/mL | 1.41 | –
30 | 4.63 | – | C/C(N)=C(/C#N)C(=O)COC(=O)c1ccccc1SCC(=O)NC1CCCCCCC1 [AB00723775] | – | – | – | – | > 50 µM | – | –
31 | 4.36 | – | O=C(COC(=O)c1c2c(nc3ccccc13)/C(=C/c1cccs1)CC2)NCC(F)(F)F [AB00725240] | – | – | – | – | > 50 µM | – | –
32 | 4.55 | – | CCc1ccc(Nc2nnc(SCC(=O)Nc3cc(OC)c([N+](=O)[O-])cc3C)s2)cc1 [AB00728303] | – | – | – | – | > 50 µM | – | –
33 | 4.65 | – | CCN(c1ccccc1)S(=O)(=O)c1cccc(C(=O)Nc2nccs2)c1 [AB00739796] | – | – | – | – | > 50 µM | – | –
34 | 4.57 | – | C=CCn1c(SC(C)C(=O)Nc2cc(C(F)(F)F)ccc2Cl)nnc1-c1ccccc1OC (centres unmarked) [AB00741842] | – | – | – | – | > 50 µM | – | –
35 | 4.97 | – | COc1ccc(-c2nc(CSc3nnc(C4CC4)n3C3CC3)cs2)cc1 [AB00747970] | – | – | – | – | > 50 µM | – | –
36 | 4.94 | – | Cc1cccc(NC(=O)COC(=O)c2ccc(F)cc2N)c1C [AB00756405] | – | – | – | – | > 50 µM | – | –
37 | 4.58 | – | CC(=O)Nc1cc(C(=O)CSc2nc3ccccc3n2C)ccc1O [AB00766545] | – | – | – | – | > 50 µM | – | –
38 | 5.22 | – | COc1cccc(Nc2nnc(SCC(=O)/C(C#N)=C(\C)N)s2)c1 [AB00767910] | – | – | – | – | > 50 µM | – | –
39 | 4.50 | – | Cc1ccc2c(Cn3cnc4scc(-c5ccc(Br)cc5)c4c3=O)cc(=O)oc2c1 [AB00796961] | – | – | – | – | > 50 µM | – | –
40 | 4.82 | – | NCc1cn2ccccc2n1 [AB00877180] | – | – | – | – | > 50 µM | – | –
